Legend:
ERG protein = target: T1, ERG protein (Homo sapiens, UniProt P11308); experiment: Inhibition of ERG protein in VCaP cells (Western blot); format: cell-based; conditions: VCaP, metastatic prostate cancer, TMPRSS2-ERG fusion; N/D = assay performed, inhibition not detected at the tested levels
T1 construct: host or cells: VCaP
T1 sequence (P11308 33-479 limits assumed): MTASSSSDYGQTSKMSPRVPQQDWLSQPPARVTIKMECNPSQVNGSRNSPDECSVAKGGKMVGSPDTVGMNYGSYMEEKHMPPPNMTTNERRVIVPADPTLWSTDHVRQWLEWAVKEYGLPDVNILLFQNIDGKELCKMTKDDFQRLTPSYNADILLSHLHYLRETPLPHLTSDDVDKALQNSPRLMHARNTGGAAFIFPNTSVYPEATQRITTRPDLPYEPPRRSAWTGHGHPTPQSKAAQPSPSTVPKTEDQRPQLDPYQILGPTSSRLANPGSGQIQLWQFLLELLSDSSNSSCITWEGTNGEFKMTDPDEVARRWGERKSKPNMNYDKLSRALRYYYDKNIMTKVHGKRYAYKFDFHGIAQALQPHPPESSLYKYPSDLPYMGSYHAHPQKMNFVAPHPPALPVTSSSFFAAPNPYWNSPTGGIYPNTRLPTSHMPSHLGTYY
Protocol: The TMPRSS2-ERG fusion positive prostate cancer cell line, VCaP (ATCC), was used to identify the test compound inhibitors of ERG expression. Cells were grown in medium using conditions prescribed by the vendor. VCaP cells in logarithmic growth were seeded in a tissue culture dish at a cell density of 2×10^6 cells per plate. Following 48 hours incubation at 37° C., cells were exposed for a period of 48 hours with 0, 0.05, 0.25 and 0.5 μM concentrations of each test azophenol compound. The inhibition of ERG expression was evaluated by an In-cell Western blot assay (LI-COR Biosciences, Lincoln, Nebr.) using the ERG specific CPDR ERG-MAb as further described below.
Inhibition of ERG protein expression by the test compounds were determined by Western blot analysis. The ERG specific monoclonal antibody CPDR ERG-MAb was used as the primary antibody. In brief, Western blot was performed by running a fixed amount of total protein extracted from cell lysates of the treated cells using (4-12% Bis-Tris) gel by electrophoresis, followed by transfer to membrane and incubation with primary antibody and continued with HRP-conjugated secondary antibody. Cultured cells were treated at specific dosages with each of the tested ERG inhibitors. Following incubation of the treated cells for an indicated time period, cells were lysed using Mammalian Protein Extraction Reagent (M-PER; Pierce, Rockford, Ill.) containing a protease inhibitor cocktail and phosphatase inhibitor cocktails I & III (Sigma, St Louis, Mo.). Cell lysates containing 50 μg of total protein were electrophoresed through 4-12% Bis-Tris Gel (Invitrogen, Carlsbad, Calif.) and the cellular proteins were transferred to PVDF membrane (Invitrogen, Carlsbad, Calif.). Membranes were incubated at 4° C. for 12 hours with primary antibodies for AR, PSA, GAPDH, α-Tubulin, apoptosis markers and cell cycle regulators. Following exposure to primary antibodies, the membranes were washed with buffer (3×, 5 minutes each at room temperature) followed by incubation with relevant secondary antibodies for 1 hour at 24° C. Finally, the membranes were washed with buffer and developed using the ECL Western blot detection reagent (GE Health Care, Buckinghamshire, UK). The ERG protein expression of the test azophenol compounds were normalized with GAPDH.
In brief, ERG positive VCaP cells in loganthmic growth phase were plated in 10 cm tissue culture dish at a cell density of 2×10^6 cells per dish. The plated cells were treated with 0, 0.2, 0.4, 0.6, 0.8 and 1 μM concentrations of each azophenol compound for a period of 48 hours. Cells from each dish were then processed for Western blot analysis and alterations in the expression of ERG protein were monitored. Both ERG and GAPDH protein band were quantified from each concentration using Image J (NIH) and ERG band density was normalized with corresponding GAPDH protein control. Relative density of ERG in each concentration was calculated and with Graphpad Prism 6 software, the IC50 of each compound was calculated.

VCaP cells = experiment: VCaP cell growth inhibition; format: cell-based; conditions: for IC50: VCaP, metastatic prostate cancer, TMPRSS2-ERG fusion, N/D = assay performed, inhibition not detected at the tested levels
Protocol: Approximately 48 hours following plating of cells, the appropriate test compound is added to each well of the tissue culture dish at a predetermined concentration. The medium was replenished every 24 hours with fresh growth medium containing the same concentration of the same test compound for indicated period of the cell growth inhibition assay. Percent cell growth inhibition was calculated using a hemocytometer for estimating cell density in each of the test wells of the tissue culture dish and trypan blue dye exclusion microscopy and photography to estimate the fraction of viable cells in each test well.
To investigate whether the azophenol compounds selectively arrested the growth of ERG positive cancer cells (VCaP), VCaP cells were cultured to achieve cells in logarithmic growth and these cells were then plated in 6 well tissue culture dishes in duplicates at a cell density of 0.2×10^6 cells per well. The plated cells were exposed to 0, 0.2, 0.4, 0.6, 0.8 and 1 μM concentrations of each compound for a period of 8 days. At the end of time period, cells were recovered from the test plate, washed, trypsinized and the cell density of viable cells were determined with trypan blue dye staining method and automated cell counter Bio-Rad TC10. The IC50 of cell growth inhibition of each compound was determined by trypsinizing the cells at the end of the experiment and counting the cells by using the automated cell counter (Bio-Rad TC10 automated cell counter). The average cell numbers of each concentration were used to calculate the IC50 of each compound with the GraphPad Prism 6 software.

[1] = 0.2, 0.4, 0.6, 0.8 and 1 μM, FIG. 19-22, 24
[2] = 0.3, 0.6, 1.0, 3.0 and 10.0 μM, FIG. 25-30

| IC50 (ERG protein) [nM] | IC50 (VCaP cells) [nM] | SMILES | inhibition of VCaP cell growth (VCaP cells; 0.02, 0.05, 0.10, 0.20 and 0.40 μM, FIG. 23) | inhibition of VCaP cell growth (VCaP cells; [1]) | inhibition of VCaP cell growth (VCaP cells; [2]) |
| --- | --- | --- | --- | --- | --- |
| 273 | 73.9 | CN(C)c1ccc(N=Nc2ccccn2)c(O)c1 [Compound 6] | inhibition | inhibition | – |
| 542 | 557 | Oc1ccc(N=Nc2ccccn2)c(O)c1 [Compound 5] | – | inhibition | inhibition |
| 559 | 626 | CN(C)c1ccc(N=Nc2ccc(Br)cn2)c(O)c1 [Compound 7] | – | inhibition | – |
| 1860 | 1120 | Cc1cc(O)cc(O)c1N=Nc1nccs1 [Compound 4] | – | – | inhibition |
